Assays:
Type in all cases: cell-based
[1] = tested on: SK-MEL-28; assay: SRB colorimetric cell growth inhibition assay, SK-MEL-28; details: MEL-28
In short: (§1)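 Read-out: sulforhodamine B colorimetry of surviving cell mass after continued exposure of human tumour lines to sample. Values are means ± SD of three wells, expressed as GI, TGI or LC.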

[2] = tested on: PANC-1; assay: SRB colorimetric cell growth inhibition assay, PANC-1; details: PANC-1
In short: as §1

[3] = tested on: IGROV; assay: SRB colorimetric cell growth inhibition assay, IGROV; details: IGROV
In short: as §1

[4] = tested on: HeLa-APL; assay: SRB colorimetric cell growth inhibition assay, HeLa-APL (aplidine resistant); details: HELA-APL
In short: as §1

[5] = tested on: LNCaP; assay: SRB colorimetric cell growth inhibition assay, LNCaP; details: LN-caP
Source text: (§2) The finality of these assays is to interrupt the growth of an “in vitro” tumor cell culture by means a continued exhibition of the cells to the sample to be testing.
(§3) A colorimetric type of assay, using sulforhodamine B (SRB) reaction has been adapted for a quantitative measurement of cell growth and viability (following the technique described by P. A. Skehan, et al., J. Natl. Cancer Inst. 1990, 82, 1107-1112).
(§4) This form of assay employs 96 well cell culture microplates of 9 mm diameter (T. Mosmann et al., J. of Immunological Methods 1983, 65, 55-63; G. T. Faircloth et al., J. of Tissue and Culture Methods 1988, 11, 201-205).
(§5) Most of the cell lines are obtained from American Type Culture Collection (ATCC) derived from different human cancer types.
(§6) The values for mean +/− SD of data from triplicate wells are calculated. Some parameters for cellular responses can be calculated: GI=growth inhibition, TGI=total growth inhibition (cytostatic effect) and LC=cell killing (cytotoxic effect).

[6] = tested on: K-562; assay: SRB colorimetric cell growth inhibition assay, K-562; details: K-562
Source text: as §2, §3, §4, §5, §6

[7] = tested on: IGROV-ET; assay: SRB colorimetric cell growth inhibition assay, IGROV-ET (ET-743 resistant); details: IGROV-ET
In short: as §1

[8] = tested on: SK-BR-3; assay: SRB colorimetric cell growth inhibition assay, SK-BR-3; details: SK-BR-3
In short: as §1

[9] = tested on: HeLa; assay: SRB colorimetric cell growth inhibition assay, HeLa; details: HELA
In short: as §1

[10] = tested on: HT-29; assay: SRB colorimetric cell growth inhibition assay, HT-29; details: HT-29
In short: as §1

[11] = tested on: A-549; assay: SRB colorimetric cell growth inhibition assay, A-549; details: A-549
In short: as §1

[12] = tested on: LoVo-Dox; assay: SRB colorimetric cell growth inhibition assay, LoVo-Dox (MDR); details: LOVO-DOX
In short: as §1

[13] = tested on: LoVo; assay: SRB colorimetric cell growth inhibition assay, LoVo; details: LOVO
In short: as §1

[14] = tested on: DU-145; assay: SRB colorimetric cell growth inhibition assay, DU-145; details: DU-145
In short: as §1

[15] = total growth inhibition (cytostatic effect)

Question: How did the GI50 ([1]; GI=growth inhibition, read-out: GI50 MEL-28) turn out when `COc1cc(-c2c3c4cc(OC)c(OC(=O)[C@H](C)N)cc4oc(=O)c3n3ccc4cc(O)c(OC)cc4c23)ccc1O.Cl` [Compound 240] was run?
Answer: 99.7 nM

Question: What about the CC50 ([1]; cell killing (cytotoxic effect), read-out: LC50 MEL-28) of the same molecule?
Answer: 1440 nM

Question: And the “TGI MEL-28” value [1, 15]?
Answer: 3.81E−07 Molar

Question: What about the GI50 ([2]; GI=growth inhibition, read-out: GI50 PANC-1) of the same molecule?
Answer: 70.5 nM

Question: What about the CC50 ([2]; cell killing (cytotoxic effect), read-out: LC50 PANC-1) of the same molecule?
Answer: 8860 nM

Question: And the “TGI PANC-1” value [2, 15]?
Answer: 6.82E−07 Molar

Question: And the GI50 ([3]; GI=growth inhibition, read-out: GI50 IGROV)?
Answer: 136 nM

Question: And the CC50 ([3]; cell killing (cytotoxic effect), read-out: LC50 IGROV)?
Answer: 3640 nM

Question: What about the “TGI IGROV” value [3, 15] of the same molecule?
Answer: 5.22E−07 Molar

Question: And the GI50 ([4]; GI=growth inhibition, read-out: GI50 HELA-APL)?
Answer: 341 nM

Question: What about the CC50 ([4]; cell killing (cytotoxic effect), read-out: LC50 HELA-APL) of the same molecule?
Answer: 7610 nM

Question: What about the “TGI HELA-APL” value [4, 15] of the same molecule?
Answer: 1.40E−06 Molar

Question: What about the GI50 ([5]; GI=growth inhibition, read-out: GI50 LN-caP) of the same molecule?
Answer: 4090 nM

Question: And the CC50 ([5]; cell killing (cytotoxic effect), read-out: LC50 LN-caP)?
Answer: 16500 nM

Question: What about the “TGI LN-caP” value [5, 15] of the same molecule?
Answer: 1.65E−05 Molar

Question: And the GI50 ([6]; GI=growth inhibition, read-out: GI50 K-562)?
Answer: 124 nM

Question: And the CC50 ([6]; cell killing (cytotoxic effect), read-out: LC50 K-562)?
Answer: 2090 nM

Question: And the “TGI K-562” value [6, 15]?
Answer: 4.50E−07 Molar

Question: And the GI50 ([7]; GI=growth inhibition, read-out: GI50 IGROV-ET)?
Answer: 82.4 nM

Question: What about the CC50 ([7]; cell killing (cytotoxic effect), read-out: LC50 IGROV-ET) of the same molecule?
Answer: 12900 nM

Question: What about the “TGI IGROV-ET” value [7, 15] of the same molecule?
Answer: 3.66E−07 Molar

Question: What about the GI50 ([8]; GI=growth inhibition, read-out: GI50 SK-BR-3) of the same molecule?
Answer: 59.3 nM

Question: And the CC50 ([8]; cell killing (cytotoxic effect), read-out: LC50 SK-BR-3)?
Answer: 16500 nM

Question: What about the “TGI SK-BR-3” value [8, 15] of the same molecule?
Answer: 3.43E−07 Molar

Question: What about the GI50 ([9]; GI=growth inhibition, read-out: GI50 HELA) of the same molecule?
Answer: 57.5 nM

Question: What about the CC50 ([9]; cell killing (cytotoxic effect), read-out: LC50 HELA) of the same molecule?
Answer: 1400 nM

Question: And the “TGI HELA” value [9, 15]?
Answer: 1.49E−07 Molar

Question: And the GI50 ([10]; GI=growth inhibition, read-out: GI50 HT-29)?
Answer: 1640 nM

Question: And the CC50 ([10]; cell killing (cytotoxic effect), read-out: LC50 HT-29)?
Answer: 16500 nM

Question: What about the “TGI HT-29” value [10, 15] of the same molecule?
Answer: 1.59E−05 Molar

Question: What about the GI50 ([11]; GI=growth inhibition, read-out: GI50 A-549) of the same molecule?
Answer: 126 nM

Question: And the CC50 ([11]; cell killing (cytotoxic effect), read-out: LC50 A-549)?
Answer: 1510 nM

Question: And the “TGI A-549” value [11, 15]?
Answer: 4.70E−07 Molar

Question: What about the GI50 ([12]; GI=growth inhibition, read-out: GI50 LOVO-DOX) of the same molecule?
Answer: 461 nM

Question: And the CC50 ([12]; cell killing (cytotoxic effect), read-out: LC50 LOVO-DOX)?
Answer: 16500 nM

Question: What about the “TGI LOVO-DOX” value [12, 15] of the same molecule?
Answer: 1.15E−06 Molar

Question: And the GI50 ([13]; GI=growth inhibition, read-out: GI50 LOVO)?
Answer: 170 nM

Question: And the CC50 ([13]; cell killing (cytotoxic effect), read-out: LC50 LOVO)?
Answer: 1520 nM

Question: And the “TGI LOVO” value [13, 15]?
Answer: 5.09E−07 Molar

Question: And the GI50 ([14]; GI=growth inhibition, read-out: GI50 DU-145)?
Answer: 60.6 nM

Question: What about the CC50 ([14]; cell killing (cytotoxic effect), read-out: LC50 DU-145) of the same molecule?
Answer: 16500 nM

Question: What about the “TGI DU-145” value [14, 15] of the same molecule?
Answer: 1.34E−07 Molar

From US7396837B2, “Antitumoral analogs of lamellarins” (Pharma Mar, S.A.U., priority 2002, dated 2008)
